These results are taken from US20250129096A1, “ANNULATED 2-AMINO-3-CYANO THIOPHENES AND DERIVATIVES FOR THE TREATMENT OF CANCER” (Boehringer Ingelheim Int'l GmbH Corp., priority 2021, published 2025).

In brackets after ≈: the same amount, converted by molar mass. Where two headings read alike, the source gives them in different places.

A short description of series [1]: Metabolic (microsomal) stability assay, HLM. Format: in vitro ADME. The settings on record: human liver microsomes, 1 μM test compound, predicted clearance as percent of liver blood flow. As to the method: The metabolic degradation of the test compound is assayed at 37° C. with pooled liver microsomes (mouse (MLM), rat (RLM) or human (HLM)). The final incubation volume of 48 μL per time point contains TRIS buffer (pH 7.5; 0.1 M), magnesium chloride (6.5 mM), microsomal protein (0.5 mg/mL for mouse/rat, 1 mg/mL for human specimens) and the test compound at a final concentration of 1 μM. Following a short preincubation period at 37° C., the reactions are initiated by addition of 12 μL beta-nicotinamide adenine dinucleotide phosphate, reduced form (NADPH, 10 mM) and terminated by transferring an aliquot into solvent after different time points (0, 5, 15, 30, 60 min). Additionally, the NADPH-independent degradation is monitored in incubations without NADPH, terminated at the last time point by addition of acetonitrile. The quenched incubations are pelleted by centrifugation (4,000 rpm, 15 min). An aliquot of the supernatant is assayed by LC-MS/MS to quantify the concentration of parent compound in the individual samples.
In vitro intrinsic clearance (CLint, in vitro) is calculated from the time course of the disappearance of the test drug during the microsomal incubation. Each plot is fitted to the first-order elimination rate constant as C(t)=C0*exp(−ke*t), where C(t) and C0 are the concentration of unchanged test drug at incubation time t and that at preincubation and ke is the disappearance rate constant of the unchanged drug. Subsequently, CLint, in vitro (μL min^−1·amount protein) values are converted to predicted CLint, in vivo (mL min^−1 kg^−1) from incubation parameters according to the equation CLint, in vivo=CLint, in vitro×(incubation volume (ml)/amount protein (mg))×(amount protein (mg)/g liver tissue)×(liver weight/body wt.). For better across species comparison the predicted clearance is expressed as percent of the liver blood flow [% QH] (mL min^−1 kg^−1) in the individual species. In general, high stability (corresponding to low % QH) of the compounds across species is desired.

Series [2] concerns the target T1, KRAS (WT)::SOS1 (Homo sapiens, UniProt P01116, C118S).
T1 construct: KRAS (WT) 1-169, N-terminal 6His-tag for purification, cleaved off; 6His-tag (N, cleaved yes); TEV cleavage site
Kind of series: KRAS::SOS1 AlphaScreen binding assay, KRAS WT. As to the method:
(§1) Low IC50 values in this assay setting are indicative of strong inhibition of protein-protein interaction between SOS1 and KRAS:
(§2) These assays measure the inhibitory effect of compounds on KRAS mutant protein-protein interactions using the Alpha Screen technology by Perkin Elmer.
(§3) For the chosen highest assay concentration of 100 μM, 150 nL of compound solution are transferred from a 10 mM DMSO compound stock solution. A series of eleven fivefold dilutions per compound are transferred to the assay plate, compound dilutions are tested in duplicates. DMSO are added as backfill to a total volume of 150 nL.
(§4) The assays run on a fully automated robotic system in a darkened room below 100 Lux. To 150 nl of compound dilution 10 μl of a mix including KRAS mutant protein, SOS1 (final assay concentrations see above) and GDP nucleotide (Sigma G7127; final assay concentration 10 μM) in assay buffer (1×PBS, 0.1% BSA, 0.05% Tween 20) are added into columns 1-24. After 30 minutes incubation time 5 μl of Alpha Screen bead mix in assay buffer are added into columns 1-23.
(§5) Plates are kept at room temperature in a darkened incubator. After an additional 60 minutes incubation time the signal is measured in a PerkinElmer Envision HTS Multilabel Reader using the AlphaScreen specs from PerkinElmer.
(§6) IC50 values are calculated and analyzed with Boehringer Ingelheim's MEGALAB IC50 application using a 4 parametric logistic model.

Series [3] has as its target KRAS G12D Ba/F3 cells (Homo sapiens, UniProt P01116, G12D, cells depend on it). Briefly: Ba/F3 proliferation assay, KRAS G12D. The settings on record: 72 h, AlamarBlue; read-out: KRAS G12D Ba/F3 IC50. The format is cell-based. As for the experimental part: (§7) To generate KRASG12-dependent Ba/F3 models, Ba/F3 cells are transduced with retroviruses containing vectors that harbor KRASG12 isoforms. Platinum-E cells (Cell Biolabs) are used for retrovirus packaging. Retrovirus is added to Ba/F3 cells. To ensure infection, 4 μg/mL polybrene is added and cells are spinfected. […] Cells with an infection efficiency of 10% to 20% are further cultivated and puromycin selection with 1 μg/mL is initiated. As a control, parental Ba/F3 cells are used to show selection status. Selection is considered successful when parental Ba/F3 cells cultures died. To evaluate the transforming potential of KRASG12 mutations, the growth medium is no longer supplemented with IL-3. Ba/F3 cells harboring the empty vector are used as a control. Approximately ten days before conducting the experiments, puromycin is left out. […] All treatments are performed in technical duplicates. […] AlamarBlue™(ThermoFisher), a viability stain, is added and fluorescence measured in the PerkinElmer Envision HTS Multilabel Reader. The raw data are imported into and analyzed with the Boehringer Ingelheim proprietary software MegaLab (curve fitting based on the program PRISM, GraphPad Inc.).
(Alamar Blue is a resazurin reagent that responds to reducing activity.)

Series [4] deals with KRAS G12C Ba/F3 cells (Homo sapiens, UniProt P01116, G12C, cells depend on it). Kind of series: Ba/F3 proliferation assay, KRAS G12C. Format: cell-based. The settings on record: 72 h, AlamarBlue; read-out: KRAS G12C Ba/F3 IC50. As to the method:
as §7

The target of series [5] is T2, KRAS (G12C)::SOS1 (Homo sapiens, UniProt P01116, C118S/C51S/C80L/G12C).
T2 construct: KRAS (G12C) 1-169, N-terminal 6His-tag for purification, cleaved off; 6His-tag (N, cleaved yes)
T2 sequence (P01116 1-169 isoform P01116-2 G12C/C51S/C80L/C118S): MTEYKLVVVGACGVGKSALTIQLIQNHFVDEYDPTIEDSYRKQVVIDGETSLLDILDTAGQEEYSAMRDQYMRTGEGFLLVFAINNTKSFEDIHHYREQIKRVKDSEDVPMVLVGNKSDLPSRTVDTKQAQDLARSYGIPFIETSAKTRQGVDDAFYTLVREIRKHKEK
Briefly: KRAS::SOS1 AlphaScreen binding assay, KRAS G12C. As for the experimental part:
as §1, §2, §3, §4, §5, §6
A general note: In Alpha technology, singlet oxygen from a donor bead excites a nearby acceptor bead.

The target of series [6] is T3, KRAS (G12D)::SOS1 (Homo sapiens, UniProt P01116, G12D).
T3 construct: KRAS (G12D) 1-169, N-terminal 6His-tag, C-terminal avi-tag; 6His-tag (N); purchased Xtal BioStructures, Inc. (KRAS G12D); Viva Biotech Ltd (SOS1)
T3 sequence (P01116 1-169 isoform P01116-2 G12D): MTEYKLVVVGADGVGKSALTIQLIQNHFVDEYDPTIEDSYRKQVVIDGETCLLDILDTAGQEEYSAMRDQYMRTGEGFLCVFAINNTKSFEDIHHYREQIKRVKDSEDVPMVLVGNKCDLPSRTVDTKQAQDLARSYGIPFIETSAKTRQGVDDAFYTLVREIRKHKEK
Briefly: KRAS::SOS1 AlphaScreen binding assay, KRAS G12D. As to the method: as §1, §2, §3, §4, §5, §6

Series [7] can be described thus: Solubility measurement (DMSO solution precipitation method). Format: physicochemical. The settings on record: aqueous buffer, kinetic from dmso stock, ambient temperature. As for the experimental part:
The DMSO solution is diluted with an aqueous medium (McIlvaine buffer with pH=4.5 or 6.8) to a final concentration of 250 μM. After 24 h of shaking at ambient temperature a potentially formed precipitate is removed by filtration. The concentration of the test compound in the filtrate is determined by LC-UV methods by calibrating the signal to the signal of a reference solution with complete dissolution of the test compound in acetonitrile/water (1:1) with known concentration.

Series [8] concerns the target KRAS G12V Ba/F3 cells (Homo sapiens, UniProt P01116, G12V, cells depend on it). Kind of series: Ba/F3 proliferation assay, KRAS G12V. The format is cell-based. The settings on record: 72 h, AlamarBlue; read-out: KRAS G12V Ba/F3 IC50. As for the experimental part:
as §7

Where [9] appears, read: McIlvaine buffer pH 4.5, 24 h, read-out: solubility pH 4.5.
Setting [10] is: McIlvaine buffer pH 6.8, 24 h, read-out: solubility pH 6.8.

Chain of KRAS G12D Ba/F3 cells (P01116 whole entry G12D, canonical isoform): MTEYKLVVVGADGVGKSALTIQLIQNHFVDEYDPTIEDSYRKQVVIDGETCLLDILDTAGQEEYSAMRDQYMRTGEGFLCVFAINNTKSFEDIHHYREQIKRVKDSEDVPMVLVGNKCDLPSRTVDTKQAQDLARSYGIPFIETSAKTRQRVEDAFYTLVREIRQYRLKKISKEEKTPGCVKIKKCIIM
Chain of KRAS G12C Ba/F3 cells (P01116 whole entry G12C): as the sequence (P01116 whole entry G12D, canonical isoform) above, with D12C counted along it
T1 sequence (P01116 1-169 isoform P01116-2 C118S): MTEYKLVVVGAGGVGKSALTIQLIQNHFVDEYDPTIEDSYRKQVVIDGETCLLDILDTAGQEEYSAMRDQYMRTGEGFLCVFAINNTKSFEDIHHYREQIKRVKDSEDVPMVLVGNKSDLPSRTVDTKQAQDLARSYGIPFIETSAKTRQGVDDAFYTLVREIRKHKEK
Chain of KRAS G12V Ba/F3 cells (P01116 whole entry G12V): as the sequence (P01116 whole entry G12D, canonical isoform) above, with D12V counted along it

What is called IC50 is the concentration that inhibits the measured activity by half. A low value points to greater potency in that assay. Usually solubility stands for the concentration that dissolves in the medium under given conditions. In the case of `C[C@@H](O)CN1CCCN(c2nccc(-c3onc4c3CCC[C@@]43CCCc4sc(N)c(C#N)c43)n2)[C@@H](C)C1` [Ig-4], in series [1], the “HLM QH” value is listed as more than 88%. The IC50 in series [2] turned out to be 21 nM; in series [5], 6 nM; in series [6], 3 nM. For the same compound, the GI50 in series [3] turned out to be 88 nM; in series [4], 108 nM. Moreover, the solubility at 24 h in series [7] (setting [9]) is more than 153 µg/mL; in series [7] (setting [10]), 76 µg/mL (≈ 142 µM).
Turning to `C[C@H]1CN(C2CCOCC2)CCCN1c1nccc(-c2noc3c2CCC[C@@]32CCCc3sc(N)c(C#N)c32)n1` (single isomer, unassigned) [IIg-1], the “HLM QH” value in series [1] was more than 88%. For the same compound, the IC50 in series [2] amounted to 25 nM; in series [5] it was 10 nM; in series [6], 4 nM. The GI50 in series [3] was 23 nM; in series [4] it was 10 nM. The solubility at 24 h was 107 µg/mL (≈ 191 µM) in series [7] (setting [9]) and less than 1 µg/mL in series [7] (setting [10]).
Turning to `C[C@H](Oc1nccc(-c2n[nH]c3c2CCCC32CCCc3sc(N)c(C#N)c32)n1)[C@@H]1CCCN1C` (stereo partly drawn) [IIIa-1], the GI50 in series [3] turned out to be 697 nM; in series [4], 930 nM. Further, the IC50 is 28 nM in series [5] and 16 nM in series [6].
As to `C[C@H]1CN(CC2CC2)CCCN1c1nccc(-c2onc3c2CCC[C@@]32CCCc3sc(N)c(C#N)c32)n1` [Ig-1], in series [1], the “HLM QH” value was more than 88%. Moreover, the GI50 in series [3] came to 48 nM; in series [4], 89 nM. Moreover, the IC50 in series [5] came to 8 nM; in series [6] it was 3 nM. The solubility at 24 h in series [7] (setting [9]) is 23 µg/mL (≈ 43.4 µM); in series [7] (setting [10]), 10 µg/mL (≈ 18.9 µM).
Regarding `C[C@H]1CNCCCN1c1nccc(-c2nn(C)c3c2CCC32CCCc3sc(N)c(C#N)c32)n1` (stereo partly drawn) [IIIb-1], in series [1], the “HLM QH” value is 31%. In addition, the values for the GI50 in series [3], in series [4] and in series [8] were 15100 nM, 11500 nM and 10400 nM, respectively. Besides, the IC50 in series [5] came to 1590 nM; in series [6], 1770 nM.
For the compound `C[C@H](Oc1nccc(-c2nnn3c2CCCC32CCCc3sc(N)c(C#N)c32)n1)[C@@H]1CCCN1C` (stereo partly drawn) [IVa-1], the “HLM QH” value in series [1] is on record as 80%. The GI50 in series [3] turned out to be 381 nM; in series [4] it was 521 nM. Further, the values for the IC50 in series [5] and in series [6] were 56 nM and 18 nM, respectively.
Take `C[C@H]1CNCCCN1c1cccc(-c2onc3c2CCC[C@@]32CCCc3sc(N)c(C#N)c32)n1` [Ib-3]: the “HLM QH” value in series [1] is listed as less than 24%. The GI50 in series [4] is 317 nM. The IC50 was 19 nM in series [5] and 8 nM in series [6].
As to `C[C@H]1CN(C2CCOC2)CCCN1c1nccc(-c2onc3c2CCC[C@@]32CCCc3sc(N)c(C#N)c32)n1` (stereo partly drawn) [Ig-2], the GI50 in series [3] amounted to 174 nM; in series [4], 123 nM. Also, the IC50 in series [5] was determined as 12 nM; in series [6], 4 nM. The solubility at 24 h in series [7] (setting [9]) was more than 110 µg/mL; in series [7] (setting [10]) it was less than 1 µg/mL.
